From patent US20190002915A1, “COMPOSITIONS AND METHODS FOR REGULATABLE ANTIBODY EXPRESSION” (The Trustees of the University of Pennsylvania, priority 2015, published 2019)

Legend:
[1] = IM AAV8 Z12i-immunoadhesin plus TF vectors in RAG KO mice, AP22594 induction, protein A ELISA; format: in vivo; conditions: post AAV8 administration
Method: RAG KO mice were purchased from Jackson labs. Z12i-2014A and TF plasmids were packaged into AAV8 vectors using triple transfection method. Vectors were titered using qPCR. […] First induction with AP22594 was carried out on day 13 after AAV8 administration. AP22594 was administered IP at a dose of 1 mg/kg. On day 21 post AAV8 administration, orbital bleeds were collected and the level of circulating 2011A antibody was measured by protein A ELISA. The data is presented on FIG. 8.

[2] = test system: Z12i promoter ffLuc reporter in HEK293 cells; assay: ffLuc reporter induction under Z12i promoter in transfected HEK293 cells; format: cell-based; conditions: TF cis-plasmids plus Z12i-ffLuc reporter, rapamycin versus rapalog, all TF systems tested
Method: Cis plasmid constructs having the following elements, from 5′ to 3′ were constructed: promoter, nuclear localization signal (NLS), FRAPL (lipid kinase homolog having rapamycin binding domain), p65 of human NF-κB (transcriptional activation domain), IRES, zinc finger (DNA binding domain), 2 or 3 copies of FK506 binding protein as shown below, and a poly A.
These cis plasmids were tested for in HEK293 cells for the ability to induce expression of ffLuc reporter gene under the control of Z12i promoter, consisting of 12 ZFHD binding sites followed by minimal IL2 promoter. Briefly, HEK293 cells were transfected with cis-plasmids along with the reporter constructs. 24-72 hours post transfection, cells were treated with various concentrations of either rapamycin (sirolimus) or rapalog AP22594 as indicated in FIG. 5. Expression of ffLuc was assessed using dual luciferase detection kit from Promega according to manufacturer's instructions. […] Antibodies normally are secreted into supernatant buy the transfected cells. In this experiment, transfection was performed using lipofectamine according to the manufacturer's instructions, and induction was carried out the next day after transfection using indicated amounts of rapalog. At 72 hours post transfection, supernatants were harvested and expression of anti-SIV antibody was assessed using antigen specific ELISA or protein A ELISA. […]

NHP eyes = assay: Subretinal AAV8 regulatable antibody expression in NHP eyes (ELISA); format: in vivo, Macaca mulatta (rhesus monkeys); conditions: rapamycin IV
Method: For this experiment a 3 year old male Macaca mulatta (rhesus monkeys) was purchased from Covance Research Products, Inc.
For subretinal (SR) vector injections, a needle was inserted through a sclerotomy 2 mm posterior to the limbus at the 2 or 10 o'clock position. It was then advanced through the vitreous to penetrate the retina in the posterior pole. Under microscopic control, up to 100 μL of anterior chamber fluid was removed and 150 μL of viral vector solution diluted in phosphate buffered saline (PBS) was injected into the subretinal space, thereby raising a dome-shaped retinal detachment (bleb). The detachment covered a small fraction (approximately ⅛th) of the area of the retina in the macula. The NHP received AAV8 vectors injected subretinally into the left (OS) and right (OD) eyes. The two vectors that were injected were: AAV2/8.CMV.TF1Nc (alternate name for AAV2/8.CMV.TF) and AAV2/8.Z12i.AbH.FF2A.AbL.BGH. The vectors were mixed at 1:1 ratio at 10^11 GC and delivered SR in a total volume of 150 μL.
Macaques were induced at various times following the SR vector injection. Rapamycin (2 mg/kg) was delivered IV in a solution of 1.2% Tween 80, 27.1% Polyethylene Glycol, 71.7% Nuclease Free Water. At designated times post vector delivery, a tap was performed on the OD eye (baseline) and the NHP then injected IV with 2 mg/kg rapamycin. […]

nasal airways = assay: Intranasal AAV9 regulatable ffLuc expression in mice after rapamycin induction (IVIS imaging); format: in vivo, C57BL/6 mice
Method: AAV2/9.Z12i.ffLuc and AAV2/9.CMV.Tf were used in this example. These vectors were prepared as described in S J Chen et al, Hu Gene Therapy, 24: 270-278 (August 2013). AAV2/9.Z12i.ffLuc contains:
C57BL/6 mice (6 to 8 weeks of age) were purchased from Charles River Laboratories (Wilmington, Mass.) and kept under pathogen-free conditions at the Animal Facility of the Translational Research Laboratories. Mice were anesthetized using an intraperitoneal (IP) injection of ketamine/xylazine. For vector administrations, mice were inoculated intranasally (IN) with […] in the right and left nostril for a total dose of 10^11 genome copies (GC) in 25 μL. All animal procedures were approved by the Institutional Animal Care and Use Committees of the University of Pennsylvania.
Topical (IN) application: mice were anaesthetized with ketamine/xylazine and 5 mins later 5 μL of rapamycin solution for a total dose of 10 mg/kg was delivered to the right and left nostril IN. Systemic (IP) application: mice were physically restrained and injected IP with 50 μL of a 1 mg/mL rapamycin solution.
Mice were anaesthetized with ketamine/xylazine and 5 mins later 10 μL of 15 mg/ml D-luciferin (Caliper, USA) was delivered to the right and left nostril IN. Five mins later mice were imaged using the IVIS® Xenogen imaging system [Perkin-Elmer]. Quantitation of signal was calculated using the Living Image® 3.0 Software.
The level of gene expression achieved in the nasal airways following rapamycin induction was examined. Briefly, C57B1/6 mice (n=5/group) were dosed with 10^11 GC of both AAV2/9.Z12i.ffLuc and AAV2/9.CMV.Tf in a volume of 25 μL (12.5 μL per nostril). As negative controls, groups of mice were dosed with a) AAV2/9.Z12i.ffLuc alone, b) AAV2/9.CMV.Tf alone and c) PBS mice. As a positive control for the maximal expression of ffLuc, mice (n=5) were injected with AAV2/9.CMV.ffluc. To maximize the safety of the inducible vector system we opted to restrict expression to the nasal epithelium by delivering rapamycin topically (directly to the nose) or systemically (IP).

[3] = stated as consistent with the time frame of decline; cited from earlier work
[4] = three separate IN rapamycin inductions over three months

## COC1CC2CCC(C)C(O)(O2)C(=O)C(=O)N2CCCCC2C(=O)OC(C(C)CC2CCC(O)C(OC)C2)CC(=O)C(C)C=C(C)C(O)C(OC)C(=O)C(C)CC(C)C=CC=CC=C1C (stereo not drawn) [AP22594, 28-epi-rapamycin]
[1]
  day induced expression returned to barely detectable: 49 days
  day induced expression started to decline: 35 days
[1]; data not shown
  day of peak induced expression: 28 days
[2]
  induction of transgene (ffLuc) expression: comparable levels of induction of transgene expression

## CO[C@H]1C[C@@H]2CC[C@@H](C)[C@@](O)(O2)C(=O)C(=O)N2CCCC[C@H]2C(=O)O[C@H]([C@H](C)C[C@@H]2CC[C@@H](O)[C@H](OC)C2)CC(=O)[C@H](C)/C=C(\C)[C@@H](O)[C@@H](OC)C(=O)[C@H](C)C[C@H](C)/C=C/C=C/C=C/1C [rapamycin]
NHP eyes
  time to wane to background undetectable levels: ≤ 3 months
NHP eyes; several inductions over 4 years
  peak of antibody expression post induction: 14 days
Nasal airways; IN or IP rapamycin induction
  time for ffLuc expression to reach background levels: ≤ 7 days
  time until which ffLuc expression remained stable: 48 h
Nasal airways; IN or IP rapamycin induction, AAV2/9.Z12i.ffLuc plus AAV2/9.CMV.Tf IN
  time to maximal ffLuc expression after induction: ≤ 24 h
Nasal airways; rapamycin delivered to the nose or systemically
  signs of behavioral distress: did not exhibit any signs of behavioral distress
Nasal airways; [4]
  time at which expression began to decline: 72 h
  time to maximal induction: ≤ 24 h
  time to which induction was stable: 48 h

B1: 2011A antibody: immunoadhesin expressed from the Z12i construct in AAV8 (protein)
chain: EVQLLESGPGLVKPSETLSLTCAVSGLSISSDFSWAWIRQTPGKALEYVGYIRGNTGDTYYNPSLKSRLTISKDTSKNQIYLNLSSVTAGDAAVYYCARDRVCDDDYGYYYTEVCFGLDSWGQGIVVTVSSGGGGSGGGGSGGGGSAELVMTQSPLSLSVAPGQTASISCRSSQSLDYANGNTYLSWFHQRPGQPPRRLIYQISNRDSGVPDRFSGSGAGTEFTLRISRMESDDVGIYYCGQGTTFPRTFGQGTKVEIKTCGGGSKPPTCPPCTSPELLGGPSVFLFPPKPKDTLMISRTPEVTCVVVDVSQEDPDVKFNWYVNGAEVHHAQTKPRETQYNSTYRVVSVLTVTHQDWLNGKEYTCKVSNKALPAPIQKTISKDKGQPREPQVYTLPPSREELTKNQVSLTCLVKGFYPSDIVVEWESSGQPENTYKTTPPVLDSDGSYFLYSKLTVDKSRWQQGNVFSCSVMHEALHNHYTQKSLSLSPGK
[3]
  antibody half-life: 1-2 weeks
